From patent US3962282A, “Juvenile hormone mimics” (priority 1974, dated 1976)

Tests used:
[1] = Wigglesworth, J. Ins. Physiol. 9, 105 (1963); cited from earlier work
Tenebrio molitor pupae = assay: topical application to Tenebrio molitor pupae, maturation inhibition; format: in vivo
Method in brief: (§1)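 Compounds applied topically, 1 μL acetone solution at 10%, 1% or 0.5%, to ten specimens per insect per concentration, alongside acetone and untreated controls; scored after about 8–10 days. Juvenile/adult characteristics rated 0–3 (Tenebrio 0–4), ≥2 meaning unable to reproduce; unreported specimens died during metamorphosis.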

wax moth = assay: topical application to wax moth, fifth larval stage, maturation inhibition; format: in vivo
Method in brief: as §1

alfalfa weevil larvae = assay: topical application to alfalfa weevil larvae; format: in vivo; conditions: 10 percent solution in acetone, all controls reached normal adulthood
Text: A number of compounds were applied topically to alfalfa weevil larvae as a 10 percent solution in acetone. Acetone and nontreated controls were also run. Ten larvae were used in each test. The number of normal adults emerging from the larvae was observed. In each case, all the acetone and nontreated controls reached normal adulthood. The number of normal adults from treated larvae are reported below.

Mexican bean beetle = assay: topical application to Mexican bean beetle, fourth larval stage, maturation inhibition; format: in vivo; conditions: rating scale 0-3
Method in brief: as §1

milkweed bug = assay: topical application to milkweed bug, fourth nymphal stage, maturation inhibition; format: in vivo; conditions: rating scale 0-3
Method in brief: as §1

aphid nymphs = assay: application to aphid nymphs in acetone; format: in vivo, Aphis gossypi; conditions: 3 days
Description: In another test, female aphids were placed on young squash plants and allowed to produce young for 24 hours. After 24 hours, all adult aphids were removed from the plants and the young were maintained on the plants for an additional 48-hour period. This gave an aphid nymph population having an age of 48 to 72 hours. To each nymph was applied […]. of a 10 percent, 1 percent, or 0.5 percent solution of 2.6- dimethyl-9-(3,4-methylenedioxyphenyl)-2,6-nonadiene or 7,8-epoxy-4-ethyl-8-methyl-1-(3,4-methylenedioxyphenyl)-3-decene in acetone and the aphid nymphs were transferred to new squash plants and observed for possible effects. Ten nymphs were treated with each concentration of each compound and 10 were treated with acetone alone while 10 were not treated to serve as controls. […] There was only one dead nymph treated with acetone alone and one dead nymph in the nontreated controls.

housefly larvae = assay: topical application to housefly larvae; format: in vivo, Musca domestica; conditions: scale 0-2
Description: The compounds were applied in acetone solution at concentrations of 10 percent, 1 percent and 0.5 percent. One microliter of the acetone solution was applied to each test specimen. Ten test specimens were employed for each insect at each concentration and compared to ten acetone controls and ten zero controls. Approximately eight to ten days were required before results could be ascertained.
A number of compounds were tested against housefly larvae by topical application in an acetone solution using the method described above for the primary test against Tenebrio, milkweed bug, wax moth, and Mexican bean bettel. The results with the first compound are reported on a scale of 0 to 3 with 0 indicating a normal adult, 1 indicating an adult with deformed wings, 2 indicating a partially emerged adult, and 3 indicating no evidence of emergence. The results for the other compounds are reported onn a scale of 0 to 2 with 0 indicating a normal adult, 1 indicating a partially emerged adult and 2 indicating no evidence of emergence.

[2] = test system: Housefly (Musca domestica); assay: housefly rearing diet test, percent adult emergence; format: in vivo
Description: Test compounds were mixed with the rearing diet of houseflys at various levels. The prepared diet was then placed in an 8 oz. drinking cup. Three cups were prepared for each treatment level and three control cups. Housefly eggs (Musca domestica) were placed in each cup and they were maintained at 28°C. for 1 week. Fifty pupae were then removed from each cup and placed in a petri dish. After the control pupae had emerged into adults, the percent emergence in each dish was recorded. The test compounds used were 7,8-epoxy-4-ethyl-8-methyl-1-(3,4-methylenedioxyphenyl)-3-decene, 4,8-dimetyl-1-(3,4-methylenedioxyphenyl)-2,6-nonadiene and 2,6-dichloro-2,6-dimethyl-9-(3,4-methylenedioxyphenyl)nonane.

[3] = test system: Aedes aegypti mosquito larvae; assay: mosquito larvae in aqueous solutions, adult emergence; format: in vivo; conditions: for number of adults, Jar 1 Dead / number of adults, Jar 1 Living / number of adults, Jar 2 Dead / number of adults, Jar 2 Living: 13 days
Description: Two compounds, 7,8-epoxy-4-ethyl-8-methyl-1-(3,4-methylenedioxyphenyl)-3-decene and 2,6-diemthyl-9-(3,4-methylenedioxyphenyl)-2,6-nonadiene, were tested against Aedes aegypti mosquito larvae in aqueous solutions at concentrations of 10, 5, 2.5. 1.25 and 0.625 ppm. each. Ninety milliliters of each solution were placed in a pint jar and 30 five-day-old mosquito larvae were added to each jar. Two tests were run at each concentration and control tests employing only solvent with no compound were also run. Food was added to each jar, the jars were covered with cloths, and maintained at 29°C. until adults emerged in the control jars. The number of adults in the test jars was determined.

[4] = 10% in acetone, 1 microliter topical, rating scale 0 (no effect) to 3 (maximum)

## 9-(2-furyl)-2,6-dimethyl-2,6-nonadiene [dendrolasin]
[1]
  juvenile hormone activity: some juvenile hormone activity

## COc1ccc(CCC=C(C)CCC=C(C)C)cc1OC [2,6-DIMETHYL-9-(3,4-DIMETHOXYPHENYL)-2,6-NONADIENE]
Tenebrio molitor pupae; 0.5%, rating scale 0-4
  number of specimens in rating 0: 10 specimens
Tenebrio molitor pupae; 1%, rating scale 0-4
  number of specimens in rating 0: 4 specimens
  number of specimens in rating 1: 5 specimens
Tenebrio molitor pupae; 10% in acetone, 1 microliter topical, rating scale 0 (no effect) to 4 (maximum)
  number of specimens in rating 0: 2 specimens
Tenebrio molitor pupae; 10%, rating scale 0-4
  number of specimens in rating 1: 5 specimens
  number of specimens in rating 2: 3 specimens
Wax moth; 0.5%, rating scale 0-3
  number of specimens in rating 0: 10 specimens
Wax moth; 1%, rating scale 0-3
  number of specimens in rating 0: 10 specimens
Wax moth; [4]
  number of specimens in rating 0: 10 specimens
Alfalfa weevil larvae
  Number of Adults (normal adults from ten treated larvae): 5
Mexican bean beetle; 0.5%
  number of specimens in rating 0: 10 specimens
Mexican bean beetle; 1%
  number of specimens in rating 0: 10 specimens
Mexican bean beetle; 10%
  number of specimens in rating 1: 3 specimens
Milkweed bug; 0.5%
  number of specimens in rating 0: 8 specimens
Milkweed bug; 1%
  number of specimens in rating 0: 8 specimens
Milkweed bug; 10%
  number of specimens in rating 2: 3 specimens
  number of specimens in rating 3: 2 specimens

## COc1cccc(CCC=C(C)CCC=C(C)C)c1 [2,6-DIMETHYL-9-(3-METHOXYPHENYL)-2,6-NONADIENE]
Tenebrio molitor pupae; 0.5%, rating scale 0-4
  number of specimens in rating 3: 1 specimens
  number of specimens in rating 4: 9 specimens
Tenebrio molitor pupae; 1%, rating scale 0-4
  number of specimens in rating 4: 10 specimens
Tenebrio molitor pupae; 10%, rating scale 0-4
  number of specimens in rating 4: 10 specimens
Wax moth; 0.5%, rating scale 0-3
  number of specimens in rating 0: 10 specimens
Wax moth; 1%, rating scale 0-3
  number of specimens in rating 0: 9 specimens
Wax moth; [4]
  number of specimens in rating 0: 9 specimens
Wax moth; 10%, rating scale 0-3
  number of specimens in rating 2: 1 specimens
Alfalfa weevil larvae
  Number of Adults (normal adults from ten treated larvae): 6
Mexican bean beetle; 0.5%
  number of specimens in rating 0: 10 specimens
Mexican bean beetle; 1%
  number of specimens in rating 0: 10 specimens
Mexican bean beetle; 10%
  number of specimens in rating 3: 3 specimens
Milkweed bug; 0.5%
  number of specimens in rating 0: 3 specimens
  number of specimens in rating 1: 3 specimens
  number of specimens in rating 2: 4 specimens
Milkweed bug; 1%
  number of specimens in rating 1: 1 specimens
  number of specimens in rating 2: 5 specimens
  number of specimens in rating 3: 3 specimens
Milkweed bug; 10%
  number of specimens in rating 3: 9 specimens

## CCC(=CCCc1ccc2c(c1)OCO2)CCC1OC1(C)CC (stereo not drawn) [7,8-epoxy-4-ethyl-8-methyl-1-(3,4-methylenedioxyphenyl)-3-decene]
Tenebrio molitor pupae; 0.5%, rating scale 0-4
  number of specimens in rating 4: 10 specimens
Tenebrio molitor pupae; 1%, rating scale 0-4
  number of specimens in rating 4: 10 specimens
Aphid nymphs; 0.5 percent
  dead nymphs: nine of the ten
Aphid nymphs; 1 percent
  dead nymphs: all of the nymphs
Aphid nymphs; 10 percent
  dead nymphs: all of the nymphs
Housefly larvae; 0.5%
  number in rating 0 (normal adult): 6
  number in rating 2 (no evidence of emergence): 4
Housefly larvae; 1%
  number in rating 0 (normal adult): 5
  number in rating 1 (partially emerged adult): 1
  number in rating 2 (no evidence of emergence): 4
Housefly larvae; 10%
  number in rating 2 (no evidence of emergence): 10
Wax moth; 0.5%, rating scale 0-3
  number of specimens in rating 0: 1 specimens
  number of specimens in rating 3: 9 specimens
Wax moth; 1%, rating scale 0-3
  number of specimens in rating 3: 10 specimens
[2]; 0.1 ppm in diet
  percent adult emergence, Cup 1: 100%
  percent adult emergence, Cup 2: 100%
  percent adult emergence, Cup 3: 100%
[2]; 1 ppm in diet
  percent adult emergence, Cup 1: 100%
  percent adult emergence, Cup 2: 100%
  percent adult emergence, Cup 3: 100%
[2]; 10 ppm in diet
  percent adult emergence, Cup 1: 100%
  percent adult emergence, Cup 2: 100%
  percent adult emergence, Cup 3: 100%
[2]; 100 ppm
  control: ≥ 80%
[2]; 100 ppm in diet
  percent adult emergence, Cup 1: 10%
  percent adult emergence, Cup 2: 20%
  percent adult emergence, Cup 3: 10%
Mexican bean beetle; 0.5%
  number of specimens in rating 3: 10 specimens
Mexican bean beetle; 1%
  number of specimens in rating 3: 10 specimens
[3]; 0.625 ppm
  number of adults, Jar 1 Dead: 0
  number of adults, Jar 1 Living: 0
  number of adults, Jar 2 Dead: 0
  number of adults, Jar 2 Living: 0
[3]; 1.25 ppm
  number of adults, Jar 1 Dead: 0
  number of adults, Jar 1 Living: 0
  number of adults, Jar 2 Dead: 0
  number of adults, Jar 2 Living: 0
[3]; 2.5 ppm
  number of adults, Jar 1 Dead: 0
  number of adults, Jar 1 Living: 0
  number of adults, Jar 2 Dead: 0
  number of adults, Jar 2 Living: 0
[3]; 5 ppm
  number of adults, Jar 1 Dead: 0
  number of adults, Jar 1 Living: 0
  number of adults, Jar 2 Dead: 0
  number of adults, Jar 2 Living: 0
[3]; 10 ppm
  number of adults, Jar 1 Dead: 0
  number of adults, Jar 1 Living: 0
  number of adults, Jar 2 Dead: 0
  number of adults, Jar 2 Living: 0
[3]; at concentrations as low as 0.625 ppm
  control: 100%
[3]; nonadiene at 10, 5, and 2.5 ppm, decene at any concentration
  live adults in the jars: never any live adults
Milkweed bug; 0.5%
  number of specimens in rating 3: 9 specimens
Milkweed bug; 1%
  number of specimens in rating 3: 8 specimens

## CC(C)=CCCC(C)=CCCc1ccc2c(c1)OCCO2 [9-(3,4-ethylenedioxyphenyl)-2,6-dimethyl-2,6-nonadiene]
Tenebrio molitor pupae; 0.5%, rating scale 0-4
  number of specimens in rating 4: 10 specimens
Tenebrio molitor pupae; 1%, rating scale 0-4
  number of specimens in rating 3: 2 specimens
  number of specimens in rating 4: 8 specimens
Tenebrio molitor pupae; 10%, rating scale 0-4
  number of specimens in rating 4: 10 specimens
Alfalfa weevil larvae
  Number of Adults (normal adults from ten treated larvae): 7

## COc1cc(CCC=C(C)CCC=C(C)C)cc(OC)c1 [9-(3,5-dimethoxyphenyl)-2,6-dimethyl-2,6-nonadiene]
Alfalfa weevil larvae
  Number of Adults (normal adults from ten treated larvae): 8
